Results: ChEMBL document CHEMBL5608177, “Antitumor activity and transcriptome sequencing (RNA-seq) analyses of hepatocellular carcinoma cells in response to exposure triterpene-nucleoside conjugates” (Eur J Med Chem, 2024)
Calls of active or inactive are those of the source. The calls are words filed in the database; no cut-off is given here.

Legend:
SMMC-7721 [1] = assay: Induction of apoptosis in human SMMC-7721 cells assessed as early apoptotic cells at 5 uM incubated for 24 hrs by Annexin V-FITC and propidium iodide staining based flow cytometric analysis (reference value: 0.28 %); type: functional
MCF7 = assay: Antiproliferative activity against human MCF7 cells assessed as inhibition of cell growth incubated for 48 hrs by CCK-8 reagent based spectrophotometric analysis; type: functional; settings: MCF7, 48 h
SMMC-7721 [2] = assay: Induction of apoptosis in human SMMC-7721 cells assessed as late apoptotic cells at 15 uM incubated for 24 hrs by Annexin V-FITC and propidium iodide staining based flow cytometric analysis (reference value: 0.09 %); type: functional
HepG2 = assay: Antiproliferative activity against human HepG2 cells assessed as inhibition of cell growth incubated for 48 hrs by CCK-8 reagent based spectrophotometric analysis; type: functional; settings: HepG2, 48 h
SMMC-7721 [3] = assay: Induction of apoptosis in human SMMC-7721 cells assessed as early apoptotic cells at 15 uM incubated for 24 hrs in presence of Nec1 by Annexin V-FITC and propidium iodide staining based flow cytometric analysis (reference value: 0.07 %); type: functional
SMMC-7721 [4] = assay: Induction of apoptosis in human SMMC-7721 cells assessed as necrotic cells at 15 uM incubated for 24 hrs in presence of Nec1 by Annexin V-FITC and propidium iodide staining based flow cytometric analysis (reference value: 0.65 %); type: functional
SMMC-7721 [5] = assay: Induction of apoptosis in human SMMC-7721 cells assessed as viable cells at 15 uM incubated for 24 hrs in presence of Nec1 by Annexin V-FITC and propidium iodide staining based flow cytometric analysis (reference value: 99.2 %); type: functional; settings: read-out: Activity
SMMC-7721 [6] = assay: Induction of apoptosis in human SMMC-7721 cells assessed as viable cells at 10 uM incubated for 24 hrs by Annexin V-FITC and propidium iodide staining based flow cytometric analysis (reference value: 99 %); type: functional; settings: read-out: Activity
SMMC-7721 [7] = assay: Induction of apoptosis in human SMMC-7721 cells at 20 uM incubated for 24 hrs by Annexin V-FITC and propidium iodide staining based flow cytometric analysis relative to control; type: functional
SMMC-7721 [8] = assay: Induction of apoptosis in human SMMC-7721 cells assessed as early apoptotic cells at 20 uM incubated for 24 hrs by Annexin V-FITC and propidium iodide staining based flow cytometric analysis (reference value: 0.28 %); type: functional
SMMC-7721 [9] = assay: Induction of apoptosis in human SMMC-7721 cells assessed as late apoptotic cells at 10 uM incubated for 24 hrs by Annexin V-FITC and propidium iodide staining based flow cytometric analysis (reference value: 0.14 %); type: functional
SMMC-7721 [10] = assay: Induction of apoptosis in human SMMC-7721 cells assessed as early apoptotic cells at 15 uM incubated for 24 hrs in presence of 3-MA by Annexin V-FITC and propidium iodide staining based flow cytometric analysis (reference value: 0.07 %); type: functional
SMMC-7721 [11] = assay: Induction of apoptosis in human SMMC-7721 cells assessed as necrotic cells at 20 uM incubated for 24 hrs by Annexin V-FITC and propidium iodide staining based flow cytometric analysis (reference value: 0.61 %); type: functional
SMMC-7721 [12] = assay: Induction of apoptosis in human SMMC-7721 cells assessed as necrotic cells at 5 uM incubated for 24 hrs by Annexin V-FITC and propidium iodide staining based flow cytometric analysis (reference value: 0.61 %); type: functional
SMMC-7721 [13] = assay: Induction of apoptosis in human SMMC-7721 cells assessed as necrotic cells at 10 uM incubated for 24 hrs by Annexin V-FITC and propidium iodide staining based flow cytometric analysis (reference value: 0.61 %); type: functional
SMMC-7721 [14] = assay: Antiproliferative activity against human SMMC-7721 cells assessed as inhibition of cell growth incubated for 48 hrs by CCK-8 reagent based spectrophotometric analysis; type: functional; settings: SMMC-7721, 48 h
SMMC-7721 [15] = assay: Induction of apoptosis in human SMMC-7721 cells assessed as late apoptotic cells at 15 uM incubated for 24 hrs in presence of zVAD by Annexin V-FITC and propidium iodide staining based flow cytometric analysis (reference value: 0.09 %); type: functional
[16] = Toxicity in Zebrafish embryo assessed as reduction in survival rate at upto 100 uM incubated for 48 hrs by microscopic analysis; set-up: species or system Danio rerio; settings: in vivo
SMMC-7721 [17] = assay: Induction of autophagy in human SMMC-7721 cells assessed as appearance of sparse matrix at 10 uM incubated for 24 hrs by TEM analysis; type: functional, cell-based
SMMC-7721 [18] = assay: Induction of apoptosis in human SMMC-7721 cells assessed as early apoptotic cells at 15 uM incubated for 24 hrs in presence of zVAD by Annexin V-FITC and propidium iodide staining based flow cytometric analysis (reference value: 0.07 %); type: functional
SMMC-7721 [19] = assay: Induction of apoptosis in human SMMC-7721 cells assessed as viable cells at 5 uM incubated for 24 hrs by Annexin V-FITC and propidium iodide staining based flow cytometric analysis (reference value: 99 %); type: functional; settings: read-out: Activity
SMMC-7721 [20] = assay: Induction of apoptosis in human SMMC-7721 cells assessed as late apoptotic cells at 20 uM incubated for 24 hrs by Annexin V-FITC and propidium iodide staining based flow cytometric analysis (reference value: 0.14 %); type: functional
PC-3 = assay: Antiproliferative activity against human PC-3 cells assessed as inhibition of cell growth incubated for 48 hrs by CCK-8 reagent based spectrophotometric analysis; type: functional; settings: PC-3, 48 h
A549 = assay: Antiproliferative activity against human A549 cells assessed as inhibition of cell growth incubated for 48 hrs by CCK-8 reagent based spectrophotometric analysis; type: functional; settings: A549, 48 h
HeLa = assay: Antiproliferative activity against human HeLa cells assessed as inhibition of cell growth incubated for 48 hrs by CCK-8 reagent based spectrophotometric analysis; type: functional
SMMC-7721 [21] = assay: Induction of autophagy in human SMMC-7721 cells assessed as formation of autophagosome at 10 uM incubated for 24 hrs by TEM analysis; type: functional, cell-based
SMMC-7721 [22] = assay: Induction of apoptosis in human SMMC-7721 cells assessed as viable cells at 15 uM incubated for 24 hrs in presence of 3-MA by Annexin V-FITC and propidium iodide staining based flow cytometric analysis (reference value: 99.2 %); type: functional; settings: read-out: Activity
SMMC-7721 [23] = assay: Induction of apoptosis in human SMMC-7721 cells assessed as early apoptotic cells at 15 uM incubated for 24 hrs by Annexin V-FITC and propidium iodide staining based flow cytometric analysis (reference value: 0.07 %); type: functional
KYSE-150 cell line = assay: Antiproliferative activity against human KYSE-150 cell line assessed as inhibition of cell growth incubated for 48 hrs by CCK-8 reagent based spectrophotometric analysis; type: functional; settings: KYSE-150, 48 h
SMMC-7721 [24] = assay: Induction of apoptosis in human SMMC-7721 cells assessed as late apoptotic cells at 5 uM incubated for 24 hrs by Annexin V-FITC and propidium iodide staining based flow cytometric analysis (reference value: 0.14 %); type: functional
SW-620 = assay: Antiproliferative activity against human SW620 cells assessed as inhibition of cell growth incubated for 48 hrs by CCK-8 reagent based spectrophotometric analysis; type: functional; settings: SW-620, 48 h
SMMC-7721 [25] = assay: Induction of apoptosis in human SMMC-7721 cells assessed as early apoptotic cells at 10 uM incubated for 24 hrs by Annexin V-FITC and propidium iodide staining based flow cytometric analysis (reference value: 0.28 %); type: functional

C=C(C)[C@@H]1CC[C@]2(C(=O)OC)CC[C@]3(C)[C@H](CC[C@@H]4[C@@]5(C)C[C@@H](Cc6cn([C@]7(CO)O[C@@H](n8ccc(O)nc8=O)[C@@H](F)[C@@H]7O)nn6)C(=O)C(C)(C)[C@@H]5CC[C@]43C)[C@@H]12
Activity (SMMC-7721 [1]): 0.13%
IC50 (MCF7): 18.6 µM
Activity (SMMC-7721 [2]): 11.4%
IC50 (HepG2): 23.7 µM
Activity (SMMC-7721 [3]): 0.23%
Activity (SMMC-7721 [4]): 3.24%
viability at 15 µM (SMMC-7721 [5]): 87.4%
viability at 10 µM (SMMC-7721 [6]): 96.2%
Activity (SMMC-7721 [7]): 0.42%
Activity (SMMC-7721 [8]): 0.43%
Activity (SMMC-7721 [9]): 0.78%
Activity (SMMC-7721 [10]): 0.05%
Activity (SMMC-7721 [11]): 19.8%
Activity (SMMC-7721 [12]): 0.69%
Activity (SMMC-7721 [13]): 2.69%
IC50 (SMMC-7721 [14]): 7.73 µM
Activity (SMMC-7721 [15]): 8.65%
Activity [16]: Non-Toxic
Activity (SMMC-7721 [17]): Active
Activity (SMMC-7721 [18]): 0.03%
viability at 5 µM (SMMC-7721 [19]): 99%
Activity (SMMC-7721 [20]): 17.5%
IC50 (PC-3): 22.9 µM
IC50 (A549): 17.7 µM
IC50 (HeLa): 11.8 µM
Activity (SMMC-7721 [21]): Active
viability at 15 µM (SMMC-7721 [22]): 86.2%
Activity (SMMC-7721 [23]): 0.06%
IC50 (KYSE-150 cell line): 10.6 µM
Activity (SMMC-7721 [24]): 0.16%
IC50 (SW-620): 10.9 µM
Activity (SMMC-7721 [25]): 0.35%

C=C(C)[C@@H]1CC[C@]2(C(=O)OC)CC[C@]3(C)[C@H](CC[C@@H]4[C@@]5(C)C[C@@H](Cc6cn([C@H]7C[C@H](n8cc(C)c(O)nc8=O)O[C@@H]7CO)nn6)C(=O)C(C)(C)[C@@H]5CC[C@]43C)[C@@H]12
Activity (SMMC-7721 [1]): 0.24%
IC50 (MCF7): 9.78 µM
Activity (SMMC-7721 [2]): 15.2%
IC50 (HepG2): 9.55 µM
Activity (SMMC-7721 [3]): 0.19%
Activity (SMMC-7721 [4]): 5.17%
viability at 15 µM (SMMC-7721 [5]): 83.6%
viability at 10 µM (SMMC-7721 [6]): 91.7%
Activity (SMMC-7721 [7]): 0.54%
Activity (SMMC-7721 [8]): 0.089%
Activity (SMMC-7721 [9]): 6.31%
Activity (SMMC-7721 [10]): 0.23%
Activity (SMMC-7721 [11]): 23%
Activity (SMMC-7721 [12]): 0.56%
Activity (SMMC-7721 [13]): 1.48%
IC50 (SMMC-7721 [14]): 5.02 µM
Activity (SMMC-7721 [15]): 2.77%
Activity [16]: Non-Toxic
Activity (SMMC-7721 [17]): Active
Activity (SMMC-7721 [18]): 0.04%
viability at 5 µM (SMMC-7721 [19]): 98.4%
Activity (SMMC-7721 [20]): 18.9%
IC50 (PC-3): 10.1 µM
IC50 (A549): 11.9 µM
IC50 (HeLa): 6.07 µM
Activity (SMMC-7721 [21]): Active
viability at 15 µM (SMMC-7721 [22]): 91.6%
Activity (SMMC-7721 [23]): 0.04%
IC50 (KYSE-150 cell line): 5.68 µM
Activity (SMMC-7721 [24]): 0.77%
IC50 (SW-620): 4.61 µM
Activity (SMMC-7721 [25]): 0.48%
